According to ChEMBL document CHEMBL1201862, “PubChem BioAssay data set” (2004):
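The compound was tested at five concentrations on cells cultured in 96-well plates, with a 48-hour exposure period. GI50 is the concentration that inhibits growth by half.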 Activity calls are given as the source filed them. Rule as the data show it: active = GI50 up to about 1.1 µM and inactive = higher.

What was measured:
Test in all cases: NCI anticancer screen, dose series, 48 h
COLO 205 = test system: COLO 205
PC-3 = test system: PC-3
MDA-N = test system: MDA-N
SF-539 = test system: SF-539
HCC 2998 = test system: HCC 2998
OVCAR-5 = test system: OVCAR-5
NCI-H23 = test system: NCI-H23
HCT-116 = test system: HCT-116
MDA-MB-231 = test system: MDA-MB-231
OVCAR-3 = test system: OVCAR-3
786-0 = test system: 786-0
HT-29 = test system: HT-29
U-251 = test system: U-251
MDA-MB-435 = test system: MDA-MB-435
EKVX = test system: EKVX
SR = test system: SR
BT-549 = test system: BT-549
UACC-62 = test system: UACC-62
MCF7 = test system: MCF7
CCRF-CEM = test system: CCRF-CEM

SMILES	GI50 (COLO 205)	GI50 (PC-3)	GI50 (MDA-N)	GI50 (SF-539)	GI50 (HCC 2998)	GI50 (OVCAR-5)	GI50 (NCI-H23)	GI50 (HCT-116)	GI50 (MDA-MB-231)	GI50 (OVCAR-3)	GI50 (786-0)	GI50 (HT-29)	GI50 (U-251)	GI50 (MDA-MB-435)	GI50 (EKVX)	GI50 (SR)	GI50 (BT-549)	GI50 (UACC-62)	GI50 (MCF7)	GI50 (CCRF-CEM)
O=C1C(Cl)=C(Sc2nnc3c4ccccc4c4ccccc4c3n2)C(=O)c2ccccc21	19.3 µM (inactive)	19 µM (inactive)	1.92 µM (inactive)	16.1 µM (inactive)	32.4 µM (inactive)	23.2 µM (inactive)	5 µM (inactive)	16 µM (inactive)	3.51 µM (inactive)	14 µM (inactive)	16.4 µM (inactive)	25.1 µM (inactive)	13.3 µM (inactive)	1.85 µM (inactive)	17.6 µM (inactive)	7.43 µM (inactive)	17.8 µM (inactive)	15.8 µM (inactive)	12.6 µM (inactive)	3.78 µM (inactive)
CCN1C/C(=C\c2cc(OC)c(OC)c(OC)c2)C2=NN(c3ccccc3)C(c3cc(OC)c(OC)c(OC)c3)C2C1 (stereo not given)	2.36 µM (inactive)	1.08 µM (active)	2.41 µM (inactive)	0.535 µM (active)	1.07 µM (active)	2.84 µM (inactive)	3.56 µM (inactive)	1.89 µM (inactive)	0.525 µM (active)	3.63 µM (inactive)	0.398 µM (active)	2.07 µM (inactive)	0.652 µM (active)	1.52 µM (inactive)	2.09 µM (inactive)	2.03 µM (inactive)	6.75 µM (inactive)	20.1 µM (inactive)	6 µM (inactive)	1.81 µM (inactive)
COc1cc2c(cc1OCCN1C(=O)c3cccc4cccc(c34)C1=O)N=C[C@@H]1CCCN1C2=O	8.32 µM (inactive)	7.08 µM (inactive)	8.02 µM (inactive)	9.12 µM (inactive)	7.74 µM (inactive)	10.9 µM (inactive)	10.4 µM (inactive)	7.66 µM (inactive)	7.41 µM (inactive)	6.68 µM (inactive)	7.96 µM (inactive)	9.46 µM (inactive)	6.15 µM (inactive)	10.7 µM (inactive)	9.68 µM (inactive)	> 100 µM (inactive)	9.82 µM (inactive)	7.93 µM (inactive)	6.59 µM (inactive)	0.236 µM (active)
CC1CC[C@@]2(OC1)O[C@H]1C[C@H]3[C@@H]4CC[C@H]5C[C@@H](OC6OC(CO)C(OC7OC(CO)C(OC8OC(CO)C(O)C(OC9OC(C)C(OC%10OC(C)C(O)C(O)C%10O)C(O)C9O)C8OC8OCC(O)C(O)C8O)C(O)C7O)C(O)C6O)CC[C@]5(C)[C@H]4CC(=O)[C@]3(C)[C@H]1[C@@H]2C (stereo not given in full)	16.5 µM (inactive)	16.7 µM (inactive)	20 µM (inactive)	14.8 µM (inactive)	18.7 µM (inactive)	20.8 µM (inactive)	20.5 µM (inactive)	23.4 µM (inactive)	16.1 µM (inactive)	22.6 µM (inactive)	22.4 µM (inactive)	36 µM (inactive)	18.7 µM (inactive)	18.7 µM (inactive)	22.1 µM (inactive)	14.6 µM (inactive)	20.9 µM (inactive)	18.8 µM (inactive)	17.7 µM (inactive)	12.2 µM (inactive)
COc1cc2c[n+](C)c3c4cc(OC)c(OCc5ccccc5)cc4c(OCc4ccccc4)cc3c2cc1OC	0.429 µM (active)	2.5 µM (inactive)	1.23 µM (inactive)	2.57 µM (inactive)	11.7 µM (inactive)	> 29.6 µM (inactive)	5.58 µM (inactive)	3.76 µM (inactive)	5.02 µM (inactive)	2.51 µM (inactive)	13.2 µM (inactive)	3.61 µM (inactive)	0.449 µM (active)	1.74 µM (inactive)	38.5 µM (inactive)	1.4 µM (inactive)	2.21 µM (inactive)	2.6 µM (inactive)	3.93 µM (inactive)	4.68 µM (inactive)
N=C(N)NS(=O)(=O)c1ccc(NNC(=O)c2cccc3c(O)c4ccccc4nc23)cc1	24.7 µM (inactive)	28.4 µM (inactive)	25.2 µM (inactive)	26.5 µM (inactive)	18.1 µM (inactive)	42.6 µM (inactive)	31.2 µM (inactive)	24.5 µM (inactive)	37.6 µM (inactive)	24.1 µM (inactive)	38.4 µM (inactive)	21.6 µM (inactive)	32.8 µM (inactive)	25.5 µM (inactive)	23.4 µM (inactive)	35.6 µM (inactive)	21.7 µM (inactive)	30.3 µM (inactive)	16.3 µM (inactive)	34.4 µM (inactive)
COc1ccc(C(c2c[nH]c3ccc(Br)cc23)c2c[nH]c3ccc(Br)cc23)cc1	0.17 µM (active)	0.284 µM (active)	0.208 µM (active)	0.51 µM (active)	0.181 µM (active)	0.385 µM (active)	0.367 µM (active)	0.149 µM (active)	0.242 µM (active)	0.217 µM (active)	0.215 µM (active)	0.294 µM (active)	0.22 µM (active)	0.172 µM (active)	0.38 µM (active)	0.151 µM (active)	1.51 µM (inactive)	0.218 µM (active)	0.21 µM (active)	0.138 µM (active)
O=C(CC(Cc1ccccc1)c1ccc(Oc2ccccc2)cc1)Nc1cccc(Cl)c1 (stereo not given)	6 µM (inactive)	3.7 µM (inactive)	4.47 µM (inactive)	26.1 µM (inactive)	3.27 µM (inactive)	28.6 µM (inactive)	3.35 µM (inactive)	3.6 µM (inactive)	10.8 µM (inactive)	3.86 µM (inactive)	5.43 µM (inactive)	5.79 µM (inactive)	3.95 µM (inactive)	4.32 µM (inactive)	4.4 µM (inactive)	4.94 µM (inactive)	7.67 µM (inactive)	3.04 µM (inactive)	3.42 µM (inactive)	3.49 µM (inactive)
CC(C)C(=O)/C=C/c1c(Cl)cccc1Cl	10.4 µM (inactive)	11.5 µM (inactive)	3.05 µM (inactive)	3.04 µM (inactive)	15.6 µM (inactive)	3.21 µM (inactive)	2.33 µM (inactive)	1.64 µM (inactive)	4.28 µM (inactive)	2.41 µM (inactive)	7.74 µM (inactive)	2.84 µM (inactive)	3.82 µM (inactive)	3.08 µM (inactive)	13.3 µM (inactive)	1.91 µM (inactive)	2.64 µM (inactive)	6.35 µM (inactive)	3.76 µM (inactive)	11.6 µM (inactive)
COc1ccc(Oc2nc3cc(C(F)(F)F)ccc3nc2C(C)C)cc1	16 µM (inactive)	41.6 µM (inactive)	35.4 µM (inactive)	41.5 µM (inactive)	20.1 µM (inactive)	24.9 µM (inactive)	21 µM (inactive)	31 µM (inactive)	24.7 µM (inactive)	29.6 µM (inactive)	36 µM (inactive)	19 µM (inactive)	23.1 µM (inactive)	30.1 µM (inactive)	19.2 µM (inactive)	16.7 µM (inactive)	22.4 µM (inactive)	28.2 µM (inactive)	18.8 µM (inactive)	39.6 µM (inactive)
CCOC(=O)/C(C#N)=C/N(CC)/N=C/c1ccccc1	> 100 µM (inactive)	> 100 µM (inactive)	> 100 µM (inactive)	54.7 µM (inactive)	> 100 µM (inactive)	> 100 µM (inactive)	> 100 µM (inactive)	> 100 µM (inactive)	> 100 µM (inactive)	> 100 µM (inactive)	86.9 µM (inactive)	> 100 µM (inactive)	> 100 µM (inactive)	> 100 µM (inactive)	> 100 µM (inactive)	> 100 µM (inactive)	> 100 µM (inactive)	> 100 µM (inactive)	> 100 µM (inactive)	> 100 µM (inactive)
CSc1nc2c(c(N3CCOCC3)n1)C(O)n1c(nc3ccccc31)S2 (stereo not given)	0.055 µM (active)	37.2 µM (inactive)	> 100 µM (inactive)	3.8 µM (inactive)	> 100 µM (inactive)	> 100 µM (inactive)	67.8 µM (inactive)	> 100 µM (inactive)	50.2 µM (inactive)	69.2 µM (inactive)	44.3 µM (inactive)	> 100 µM (inactive)	20.8 µM (inactive)	95.3 µM (inactive)	> 100 µM (inactive)	51.2 µM (inactive)	30.5 µM (inactive)	> 100 µM (inactive)	23 µM (inactive)	21.1 µM (inactive)
Cc1ccc2nc3[nH]nc(N)c3nc2c1	> 100 µM (inactive)	93.3 µM (inactive)	51.1 µM (inactive)	> 100 µM (inactive)	> 100 µM (inactive)	> 100 µM (inactive)	> 100 µM (inactive)	> 100 µM (inactive)	> 100 µM (inactive)	> 100 µM (inactive)	> 100 µM (inactive)	> 100 µM (inactive)	> 100 µM (inactive)	> 100 µM (inactive)	20.9 µM (inactive)	> 100 µM (inactive)	67 µM (inactive)	44.2 µM (inactive)	> 100 µM (inactive)	> 100 µM (inactive)
CCOC(=O)c1ccc(/N=N/N(C)C(=O)C(C)N)cc1 (stereo not given)	> 100 µM (inactive)	> 100 µM (inactive)	78.3 µM (inactive)	> 100 µM (inactive)	> 100 µM (inactive)	> 100 µM (inactive)	> 100 µM (inactive)	> 100 µM (inactive)	> 100 µM (inactive)	> 100 µM (inactive)	> 100 µM (inactive)	> 100 µM (inactive)	> 100 µM (inactive)	56.8 µM (inactive)	> 100 µM (inactive)	36.1 µM (inactive)	98.6 µM (inactive)	> 100 µM (inactive)	> 100 µM (inactive)	> 100 µM (inactive)
